pKd: −log10 of the molar value. Like-named read-outs stand apart in the source and are kept apart here.
Experiments:
acute EAE in SJL mice = assay: Mouse acute EAE model, mIFN-β protein; format: in vivo; details: IP twice daily; Mesopram 9 mg/kg, Prednisolone 2.5 mg/kg
[1] = system: DSS-induced colitis in Balb/C mice; assay: DSS-induced colitis model (5% DSS), validation, Disease Activity Index; format: in vivo; details: daily treatment, Mesopram/Metronidazole 50 mg/kg IP, mGM-CSF 5 μg non-pegylated, 5 or 10 μg pegylated
Protocol: Disease was induced in BalbC mice (N=10/group) by DSS (5%) applied daily in the drinking water. Mesopram, Metronidazole, or yeast expressed non-pegylated respectively pegylated mGM-CSF, was administered daily over a period of 8 days. Clinical scores (Daily Activity Index (DAI), a cumulative index of: weight loss, stool consistency, and rectal bleeding) were recorded daily.
(§1) Likewise, the DSS-induced mouse colitis model is useful for evaluating therapies for UC, IBD and CD. Disease is induced in mice by daily administration of 5% or 7% dextran sodium sulfate (DSS) in the drinking water over 8 days. Disease progression is monitored by the Daily Activity Index (DAI), a cumulative index of: weight loss, stool consistency, and rectal bleeding, which mimics the symptoms of UC, IBD and/or CD.
vi. DSS-induced colitis model. Prior to the gene delivery study the model was established and validated in Balb/C mice using non-pegylated and pegylated mGM-CSF protein. Disease was induced in Balb/C mice with 5% dextran sodium sulfate (DSS), provided in the drinking water every day over a period of 8 days. As the main endpoint, the Disease Activity Index (DAI, a cumulative index of: weight loss, stool consistency, and rectal bleeding) was recorded daily. […]

DSS-induced colitis = DSS-induced colitis model (7% DSS), proof of concept with pCMV-GMCSF plasmid DNA; format: in vivo, mice; details: plasmid single injection day 0 + EP, drugs and protein daily
Protocol: Two concentrations of pCMV-mGMCSF were tested side by side with a control plasmid (pNull) and two mGM-CSF protein formulations, non-pegylated and pegylated in the DSS-induced colitis model (N=10/group). A single plasmid DNA injection was administered at day 0 followed by electroporation. Murine GM-CSF protein was injected s.c. daily. Disease was induced with 7% DSS in the drinking water and clinical scores (DIA) were recorded daily.
as §1
vii. […] In this study the efficacy of pGMCSF plasmid DNA was evaluated side by side with Mesopram, Metronidazole, non-pegylated or pegylated mGM-CSF. The disease was induced using 7% DSS, administered daily in the drinking water. Mesopram, Metronidazole and mGM-CSF protein were administered daily, using the same dosing regimen as described for the validation study. pGMCSF plasmid DNA was injected at day 0 followed by electroporation. […]

[2] = mGM-CSF concentration in sera at day 8 of the DSS colitis study; details: final day of DSS study
Protocol: (§2) At day 8, the final day of the study, mGM-CSF concentrations were measured in sera of all mice.

[3] = mouse, in vivo
Protocol: as §2

GAL-4 DBS = details: read-out: Kd for binding; cited from earlier work

Compound	clinical scores of EAE, positive controls (acute EAE in SJL mice)	DAI score [1]	disease scores (DAI) (DSS-induced colitis)	GM-CSF in sera at day 8 [2]	GM-CSF in sera at day 8 [3]	pKd (GAL-4 DBS)
CCCOc1cc([C@]2(C)CNC(=O)O2)ccc1OC [Mesopram, reference compound]	significantly decreased clinical scores	significantly reduced	efficacious	not detectable	–	–
Cc1ncc([N+](=O)[O-])n1CCO [Metronidazole, reference compound]	–	significantly reduced	efficacious	–	not detectable	–
GAL-4 residues 1-100: N-terminal DNA binding fragment of yeast GAL-4 protein	–	–	–	–	–	8.52
C[C@]12C=CC(=O)C=C1CC[C@@H]1[C@@H]2[C@@H](O)C[C@@]2(C)[C@H]1CC[C@]2(O)C(=O)CO [Prednisolone]	significantly decreased clinical scores	–	–	–	–	–

Source: patent US20070179113A1, “GM-CSF gene therapy for Crohn's disease using an improved regulated expression system” (Schering Aktiengesellachaft, priority 2005, published 2007)
